Assay results from patent US11000033B2, “Ketone or oxime compound, and herbicide” (NISSAN CHEMICAL CORPORATION, priority 2014, dated 2021).

Experiments:
Format in all cases: in vivo
beet = assay: Test Example 4: effect on crop by soil treatment (symbol f)
Summary of the method: (§1)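 Crop seeds, among them rice, wheat, beet and rapeseed, were sown in sterilized diluvial soil and covered with about 1.5 cm of soil. Boxes were kept in a greenhouse at 25° C. to 30° C. for plant growth.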

Lolium multiflorum Lam. = assay: Test Example 4: herbicidal effect by soil treatment (symbol K)
Summary of the method: (§2)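 Seeds were sown in sterilized diluvial soil, covered with about 1.5 cm of soil, and the soil surface was sprayed with a water-diluted emulsion of the compound at a predetermined rate. Plants grew in a greenhouse at 25° C. to 30° C.; effects were scored visually 3 weeks after application.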

soybean = assay: Test Example 4: effect on crop by soil treatment (symbol d)
Summary of the method: as §1

Abutilon theophrasti [1] = assay: Test Example 5: herbicidal effect by foliage application, plastic box (symbol M); conditions: 3 weeks after application
Summary of the method: (§3)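 Seeds were sown in sterilized diluvial soil, covered with about 1.5 cm of soil and grown 14 days in a greenhouse at 25° C. to 30° C. An emulsifiable formulation diluted in water to a set rate was sprayed over foliage, and injury was scored 3 weeks later.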

Abutilon theophrasti [2] = assay: Test Example 4: herbicidal effect by soil treatment (symbol M)
Summary of the method: as §2

rice plant = assay: Test Example 5: effect on crop by foliage application, plastic box (symbol b); conditions: 3 weeks after application
Summary of the method: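 Sterilized diluvial soil, plastic box (21 × 13 × 7 cm); spot sowing, ~1.5 cm soil cover; greenhouse 25–30° C.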

Apera spica-venti [3] = assay: Test Example 4: herbicidal effect by soil treatment (symbol L)
Summary of the method: as §2

[4] = system: Echinochloa oryzacola Vasing.; assay: Test Example 2: herbicidal activity, application during weed generation in submerged conditions (symbol A); conditions: Table 23, grade 0-5 by criteria of Test Example 1
Summary of the method: (§4)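 Paddy pot test, submerged (4 cm water), alluvial soil, mixed sowing; greenhouse 25–30° C. Emulsion formulation diluted to predetermined rate, applied onto floodwater at 1–2 leaf stage. Visual herbicidal rating at 3 wk post-treatment.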

Avena fatua = assay: Test Example 5: herbicidal effect by foliage application, plastic box (symbol I); conditions: 3 weeks after application
Summary of the method: as §3

Monochoria vaginalis = assay: Test Example 2: herbicidal activity, application during weed generation in submerged conditions (symbol C); conditions: Table 23, grade 0-5 by criteria of Test Example 1
Summary of the method: as §4

Setaria viridis = assay: Test Example 4: herbicidal effect by soil treatment (symbol G)
Summary of the method: as §2

[5] = system: Echinochloa crus-galli var. crus-galli; assay: Test Example 3: herbicidal effect by foliage application, Wagner pot (symbol H)
Summary of the method: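 Foliar spray of water-diluted emulsion formulation at a predetermined herbicide amount onto 14-day-old plants in flooded alluvial soil (water depth 0.1–0.5 cm), greenhouse 25–30 °C; rice sown alongside. Scored 3 wk post-application on set criteria.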

Apera spica-venti [6] = assay: Test Example 5: herbicidal effect by foliage application, plastic box (symbol L); conditions: 3 weeks after application
Summary of the method: as §3

Galium spurium = assay: Test Example 4: herbicidal effect by soil treatment (symbol Q)
Text: Herbicidal Effect Test by Soil Treatment
Sterilized diluvial soil was placed in a plastic box having a length of 21 cm, a width of 13 cm, and a depth of 7 cm. Each of the seeds of Digitaria ciliaris, Setaria viridis, Echinochloa crus-galli var. crus-galli, Avena fatua, Alopecurus myosuroides, Lolium multiflorum Lam., Apera spica-venti, Abutilon theophrasti, Amaranthus retroflexus, Chenopodium album, Stellaria media, Galium spurium, Veronica persica, corn, soybean, rice, wheat, beet, and rapeseed was sowed in a spot-like manner and was covered with the soil of a thickness of about 1.5 cm. Subsequently, the emulsion agent of the compound present invention prepared in accordance with Formulation Example 2 was diluted with water so as to be a predetermined herbicide amount and the diluted emulsion agent was uniformly applied to the surface of the soil with a small-size spray. The plastic box was placed in a greenhouse of 25° C. to 30° C. to grow plant. 3 weeks later from the herbicide application, the effect to each plant was investigated in accordance with the criteria of Test Example 1.

Digitaria ciliaris = assay: Test Example 4: herbicidal effect by soil treatment (symbol F)
Summary of the method: as §2

Stellaria media = assay: Test Example 5: herbicidal effect by foliage application, plastic box (symbol P); conditions: 3 weeks after application
Summary of the method: as §3

Veronica persica = assay: Test Example 5: herbicidal effect by foliage application, plastic box (symbol R); conditions: 3 weeks after application
Summary of the method: as §3

Chenopodium album = assay: Test Example 5: herbicidal effect by foliage application, plastic box (symbol O); conditions: 320 g/ha, 3 weeks after application
Summary of the method: as §3

[7] = application herbicide amount 192 g/ha
[8] = application herbicide amount 320 g/ha

Compound	f: beet, effect grade on crop (beet; 320 g/ha)	K: Lolium multiflorum Lam., herbicidal effect grade (Lolium multiflorum Lam.; 320 g/ha)	d: soybean, effect grade on crop (soybean; 320 g/ha)	M: Abutilon theophrasti, herbicidal effect (criteria 0-5) (Abutilon theophrasti [1]; 320 g/ha)	M: Abutilon theophrasti, herbicidal effect grade (Abutilon theophrasti [2]; 320 g/ha)	b: directly sowed rice plant, effect on crop (criteria 0-5) (rice plant; 320 g/ha)	L: Apera spica-venti, herbicidal effect grade (Apera spica-venti [3]; 320 g/ha)	Herbicidal effect grade, A: Echinochloa oryzacola Vasing. [4, 8]	I: Avena fatua, herbicidal effect (criteria 0-5) (Avena fatua; 320 g/ha)	Herbicidal effect grade, C: Monochoria vaginalis (Monochoria vaginalis; [8])	G: Setaria viridis, herbicidal effect grade (Setaria viridis; 320 g/ha)	herbicidal effect on H (Echinochloa crus-galli var. crus-galli), grade 0-5 [5, 8]	L: Apera spica-venti, herbicidal effect (criteria 0-5) (Apera spica-venti [6]; 320 g/ha)	Q: Galium spurium, herbicidal effect grade (Galium spurium; 320 g/ha)	F: Digitaria ciliaris, herbicidal effect grade (Digitaria ciliaris; 320 g/ha)	P: Stellaria media, herbicidal effect (criteria 0-5) (Stellaria media; 320 g/ha)	R: Veronica persica, herbicidal effect (criteria 0-5) (Veronica persica; 320 g/ha)	O: Chenopodium album, herbicidal effect (criteria 0-5) (Chenopodium album)	further results
CON=C(C)CC1CC(OC(=O)C2CCCO2)=C(c2c(C)cc(C)cc2C)C1=O (centres unmarked) [1-076]																			f: beet, effect grade on crop (beet; 192 g/ha): 0 (Herbicidal ratio of 5% or lower (almost no effect)); K: Lolium multiflorum Lam., herbicidal effect grade (Lolium multiflorum Lam.; 192 g/ha): 5 (Herbicidal ratio of 90% or more (almost completely withered)); d: soybean, effect grade on crop (soybean; 192 g/ha): 0 (Herbicidal ratio of 5% or lower (almost no effect)); M: Abutilon theophrasti, herbicidal effect (criteria 0-5) (Abutilon theophrasti [1]; 192 g/ha): 4 (Herbicidal ratio of 70% or higher and lower than 90%); M: Abutilon theophrasti, herbicidal effect grade (Abutilon theophrasti [2]; 192 g/ha): 4 (Herbicidal ratio of 70% or higher and lower than 90%); b: directly sowed rice plant, effect on crop (criteria 0-5) (rice plant; 192 g/ha): 5 (Herbicidal ratio of 90% or more (almost completely withered)); L: Apera spica-venti, herbicidal effect grade (Apera spica-venti [3]; 192 g/ha): 5 (Herbicidal ratio of 90% or more (almost completely withered)); Herbicidal effect grade, A: Echinochloa oryzacola Vasing. [4, 7]: 5 (Herbicidal ratio of 90% or more (almost completely withered)); I: Avena fatua, herbicidal effect (criteria 0-5) (Avena fatua; 192 g/ha): 5 (Herbicidal ratio of 90% or more (almost completely withered)); Herbicidal effect grade, C: Monochoria vaginalis (Monochoria vaginalis; [7]): 0 (Herbicidal ratio of 5% or lower (almost no effect)); G: Setaria viridis, herbicidal effect grade (Setaria viridis; 192 g/ha): 5 (Herbicidal ratio of 90% or more (almost completely withered)); herbicidal effect on H (Echinochloa crus-galli var. crus-galli), grade 0-5 [5, 7]: 5 (Herbicidal ratio of 90% or more (almost completely withered)); L: Apera spica-venti, herbicidal effect (criteria 0-5) (Apera spica-venti [6]; 192 g/ha): 5 (Herbicidal ratio of 90% or more (almost completely withered)); Q: Galium spurium, herbicidal effect grade (Galium spurium; 192 g/ha): 0 (Herbicidal ratio of 5% or lower (almost no effect)); F: Digitaria ciliaris, herbicidal effect grade (Digitaria ciliaris; 192 g/ha): 5 (Herbicidal ratio of 90% or more (almost completely withered)); P: Stellaria media, herbicidal effect (criteria 0-5) (Stellaria media; 192 g/ha): 3 (Herbicidal ratio of 40% or higher and lower than 70%); R: Veronica persica, herbicidal effect (criteria 0-5) (Veronica persica; 192 g/ha): 3 (Herbicidal ratio of 40% or higher and lower than 70%)
CON=C(C)CC1CC(OC(=O)C(CSC)=NOC)=C(c2c(C)cc(C)cc2C)C1=O (centres unmarked) [1-098]	0 (Herbicidal ratio of 5% or lower (almost no effect))	5 (Herbicidal ratio of 90% or more (almost completely withered))	2 (Herbicidal ratio of 20% or higher and lower than 40%)	4 (Herbicidal ratio of 70% or higher and lower than 90%)	4 (Herbicidal ratio of 70% or higher and lower than 90%)	5 (Herbicidal ratio of 90% or more (almost completely withered))	5 (Herbicidal ratio of 90% or more (almost completely withered))	5 (Herbicidal ratio of 90% or more (almost completely withered))	5 (Herbicidal ratio of 90% or more (almost completely withered))	3 (Herbicidal ratio of 40% or higher and lower than 70%)	5 (Herbicidal ratio of 90% or more (almost completely withered))	5 (Herbicidal ratio of 90% or more (almost completely withered))	5 (Herbicidal ratio of 90% or more (almost completely withered))	0 (Herbicidal ratio of 5% or lower (almost no effect))	5 (Herbicidal ratio of 90% or more (almost completely withered))	3 (Herbicidal ratio of 40% or higher and lower than 70%)	3 (Herbicidal ratio of 40% or higher and lower than 70%)	0 (Herbicidal ratio of 5% or lower (almost no effect))	
CON=C(C)CC1CC(OC(=O)c2cc(C)on2)=C(c2c(C)cc(C)cc2C)C1=O (centres unmarked) [1-100]	0 (Herbicidal ratio of 5% or lower (almost no effect))	5 (Herbicidal ratio of 90% or more (almost completely withered))	2 (Herbicidal ratio of 20% or higher and lower than 40%)	4 (Herbicidal ratio of 70% or higher and lower than 90%)	4 (Herbicidal ratio of 70% or higher and lower than 90%)	5 (Herbicidal ratio of 90% or more (almost completely withered))	5 (Herbicidal ratio of 90% or more (almost completely withered))	5 (Herbicidal ratio of 90% or more (almost completely withered))	5 (Herbicidal ratio of 90% or more (almost completely withered))	3 (Herbicidal ratio of 40% or higher and lower than 70%)	5 (Herbicidal ratio of 90% or more (almost completely withered))	5 (Herbicidal ratio of 90% or more (almost completely withered))	5 (Herbicidal ratio of 90% or more (almost completely withered))	0 (Herbicidal ratio of 5% or lower (almost no effect))	5 (Herbicidal ratio of 90% or more (almost completely withered))	0 (Herbicidal ratio of 5% or lower (almost no effect))	3 (Herbicidal ratio of 40% or higher and lower than 70%)	1 (Herbicidal ratio of 5% or higher and lower than 20%)	
CON=C(C)CC1CC(OC(=O)N2CCOCC2)=C(c2c(C)cc(C)cc2C)C1=O (centres unmarked) [1-104]	0 (Herbicidal ratio of 5% or lower (almost no effect))	5 (Herbicidal ratio of 90% or more (almost completely withered))	0 (Herbicidal ratio of 5% or lower (almost no effect))	3 (Herbicidal ratio of 40% or higher and lower than 70%)	4 (Herbicidal ratio of 70% or higher and lower than 90%)	5 (Herbicidal ratio of 90% or more (almost completely withered))	5 (Herbicidal ratio of 90% or more (almost completely withered))	5 (Herbicidal ratio of 90% or more (almost completely withered))	5 (Herbicidal ratio of 90% or more (almost completely withered))	0 (Herbicidal ratio of 5% or lower (almost no effect))	5 (Herbicidal ratio of 90% or more (almost completely withered))	5 (Herbicidal ratio of 90% or more (almost completely withered))	5 (Herbicidal ratio of 90% or more (almost completely withered))	0 (Herbicidal ratio of 5% or lower (almost no effect))	5 (Herbicidal ratio of 90% or more (almost completely withered))	1 (Herbicidal ratio of 5% or higher and lower than 20%)	1 (Herbicidal ratio of 5% or higher and lower than 20%)	2 (Herbicidal ratio of 20% or higher and lower than 40%)	
